Test system: 885724-159-R-J1-PDC complex spheroid viability
Assay: Anticancer human tumor 885724-159-R-J1-PDC patient-derived pancreatic adenocarcinoma cell line growth inhibition [POLQ]
Conditions: for IC50: curve of first compound; for viability, T/C: stronger effect = lower value
Outline: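 Three-cell-type spheroids modelling solid tumor plus stroma served as the readout system; POL inhibitors were tested individually and in combination, concentration ranges set by clinical Cmax where known.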
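Note: spheroids exposed to compounds for 7 days.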

COc1cccc(OCCCN)c1-c1cc(Nc2cnc(C#N)cn2)n[nH]1 + COC1C(OC(N)=O)C(O)C(Oc2ccc3c(O)c(NC(=O)c4ccc(O)c(CC=C(C)C)c4)c(=O)oc3c2C)OC1(C)C
IC50 (second compound 0.0316 µM): 5.21 nM | IC50 (second compound 0.1 µM): 7.41 nM | IC50 (second compound 0.316 µM): 7.34 nM | IC50 (second compound 1 µM): 8.1 nM | IC50 (second compound 3.16 µM): 17.6 nM | IC50 (second compound 10 µM): 6.72 nM | viability, T/C (second compound 0.0316 µM, first compound 0.00316 µM): 58.8% | viability, T/C (second compound 0.0316 µM, first compound 0.01 µM): 45.9% | viability, T/C (second compound 0.0316 µM, first compound 0.0316 µM): 40.8% | viability, T/C (second compound 0.0316 µM, first compound 0.1 µM): 41.1% | viability, T/C (second compound 0.0316 µM, first compound 0.316 µM): 44.4% | viability, T/C (second compound 0.0316 µM, first compound 1 µM): 46.8% | viability, T/C (second compound 0.1 µM, first compound 0.00316 µM): 62.2% | viability, T/C (second compound 0.1 µM, first compound 0.01 µM): 46.1% | viability, T/C (second compound 0.1 µM, first compound 0.0316 µM): 41.2% | viability, T/C (second compound 0.1 µM, first compound 0.1 µM): 42.3% | viability, T/C (second compound 0.1 µM, first compound 0.316 µM): 45.4% | viability, T/C (second compound 0.1 µM, first compound 1 µM): 39% | viability, T/C (second compound 0.316 µM, first compound 0.00316 µM): 62.6% | viability, T/C (second compound 0.316 µM, first compound 0.01 µM): 45.3% | viability, T/C (second compound 0.316 µM, first compound 0.0316 µM): 43.5% | viability, T/C (second compound 0.316 µM, first compound 0.1 µM): 46.9% | viability, T/C (second compound 0.316 µM, first compound 0.316 µM): 42.5% | viability, T/C (second compound 0.316 µM, first compound 1 µM): 40.8% | viability, T/C (second compound 1 µM, first compound 0.00316 µM): 63.2% | viability, T/C (second compound 1 µM, first compound 0.01 µM): 48.5% | viability, T/C (second compound 1 µM, first compound 0.0316 µM): 41.8% | viability, T/C (second compound 1 µM, first compound 0.1 µM): 35.9% | viability, T/C (second compound 1 µM, first compound 0.316 µM): 45.4% | viability, T/C (second compound 1 µM, first compound 1 µM): 46.4% | viability, T/C (second compound 3.16 µM, first compound 0.00316 µM): 58.7% | viability, T/C (second compound 3.16 µM, first compound 0.01 µM): 55% | viability, T/C (second compound 3.16 µM, first compound 0.0316 µM): 44.6% | viability, T/C (second compound 3.16 µM, first compound 0.1 µM): 44.2% | viability, T/C (second compound 3.16 µM, first compound 0.316 µM): 43.2% | viability, T/C (second compound 3.16 µM, first compound 1 µM): 39.6% | viability, T/C (second compound 10 µM, first compound 0.00316 µM): 59.4% | viability, T/C (second compound 10 µM, first compound 0.01 µM): 45.4% | viability, T/C (second compound 10 µM, first compound 0.0316 µM): 41.5% | viability, T/C (second compound 10 µM, first compound 0.1 µM): 44.3% | viability, T/C (second compound 10 µM, first compound 0.316 µM): 43.5% | viability, T/C (second compound 10 µM, first compound 1 µM): 45.1%

From PubChem BioAssay AID1963832 (Molecular Pharmacology Branch, DTP, NCI, 2024)
